Data taken from patent US8778985B2, “Inhibiting amyloid-beta peptide/rage interaction at the blood-brain barrier” (The University of Rochester, priority 2006, dated 2014).

Tested on: APPsw+/− mice
Assay: Resting CBF by laser-doppler flowmetry, acute FPS2 treatment of APPsw+/− mice
Assay type: in vivo
Details: 1 mg/kg intravenous bolus, 7-9 months old mice
Procedure: Cerebral blood flow changes expressed as a percentage of baseline recorded over a 90 min period in mice administered FPS2 (filled triangle) or vehicle (filled square). FPS2 (1 mg/kg) was administered intravenously (arrow) as a bolus in 7-9 months old mice. Values are means±s.e.m, n=3 per group.
APPsw^+/− mice were treated with FPS2 (1 mg/kg) or with vehicle daily by intraperitoneal injection for two months starting at 8 months old. At the end of the treatment period functional changes in cerebral blood flow (CBF) to brain activation, and memory tests were determined. Brain and plasma Aβ levels were also determined in FPS2 and vehicle treated mice. […]
Compounds were synthesized in parallel using semiautomated chemical reactions. […] Purity was assessed by reverse-phase gradient HPLC. […] After two months of treatment, (i) the cerebral blood flow response to brain activation (whisker stimulation) was measured and (ii) behavioral tests including operant learning, novel object location (NOL), and novel object recognition (NOR) were performed. After these functional tests, the mice were sacrificed and their brains analyzed for Aβ40, Aβ42, and amyloid levels. • CBF response to brain activation. The CBF response to vibrissal stimulation in anesthetized APPsw^+/− mice was measured by using laser-doppler flowmetry (Transonic Systems, BLF 21 D). […]

CC(CC(=O)NCCCN(C(=O)c1cc([N+](=O)[O-])cc([N+](=O)[O-])c1)c1ccccc1)CC(C)(C)C (centres unmarked) [FPS2, 3,5-dinitro-N-phenyl-N-[3-[(3,5,5-trimethyl-1-oxohexyl)amino]propyl]-(9Cl)-benzamide]
time of peak of resting CBF increase: 25 to 30 min
transient increase of resting CBF: about 35%
